The test system of series [1] is MDA-MB-231. The experiment in a line: Cytotoxicity against paclitaxel-resistant human MDA-MB-231 cells after 24 hrs by MTT assay. The conditions noted are these: MDA-MB-231, 24 h. The format is functional, cell-based. On the technique in general: Formazan colour is commonly taken as a measure of viable cells.
A short description of series [2]: Stability in human liver microsomes at 1 uM pre-incubated for 5 mins in presence of NADPH and measured after 45 mins by LC/MS method. Type of series: ADME. The conditions noted are these: read-out: Stability. Background: Liver microsomes are vesicles of endoplasmic reticulum, rich in cytochrome P450 enzymes.
The nature of series [3]: Stability in mouse liver microsomes at 1 uM pre-incubated for 5 mins in presence of NADPH and measured after 45 mins by LC/MS method. The format is ADME. The conditions noted are these: read-out: Stability.
Series [4] deals with MDA-MB-231. As to the kind of experiment: Inhibition of cell proliferation of paclitaxel-resistant human MDA-MB-231 cells at 10 uM after 24 hrs by MTT assay. The format is functional. To be noted: MDA-MB-231, 24 h.
Series [5] is described as follows: Cytotoxicity against human MES-SA cells after 24 hrs by MTT assay. Type of series: functional, cell-based.
The nature of series [6]: Cytotoxicity against human MES-SA/Dx5 cells after 24 hrs by MTT assay. The format is functional, cell-based. The conditions noted are these: MES-SA/Dx5, 24 h.
Series [7] can be described thus: Cytotoxicity against human HL60 cells after 24 hrs by MTT assay. Type of series: functional, cell-based. The conditions noted are these: HL-60, 24 h.
Series [8] can be described thus: Cytotoxicity against human MDA435 cells after 24 hrs by MTT assay. Type of series: functional, cell-based. To be noted: MDA-MB-435, 24 h.

The record followed here is ChEMBL document CHEMBL3351690, “Design, synthesis and structure--activity relationship (SAR) studies of imidazo[4,5-b]pyridine derived purine isosteres and their potential as cytotoxic agents” (Eur J Med Chem, 2015).

Broadly, the IC50 is the concentration at which inhibition is half-maximal. A higher IC50 goes with weaker potency. A word on the inhibition: it is the share of the control response that was lost under treatment. Read a low inhibition as a weak effect.

In turn, `COC(=O)c1ccc(-c2nc3cccnc3n2C2CCCC2)cc1` gave an IC50 with MDA-MB-231 [1] of 350 nM. In addition, the remaining at 0.75 h, 1 µM in series [2] and in series [3] was 52% throughout. The compound further returned an inhibition at 10 µM in the series on MDA-MB-231 [4] of 25%.

`c1ccc(-c2nc3ncccc3n2C2CCCC2)cc1` showed a 50% inhibitory concentration (IC50) in the series on MDA-MB-231 [1] of 7000 nM.

For the compound `c1cncc(-c2ccc(-c3nc4cccnc4n3C3CCCC3)cc2)c1`, the IC50 in the series on MDA-MB-231 [1] is > 10000 nM.

On to `COc1ncc(-c2nc3cccnc3n2C2CCCC2)c(OC)n1`, for which, in the series with MDA-MB-231 [1], the concentration for half-maximal inhibition (IC50) is > 10000 nM.

Regarding `CC(=O)O[C@H]1C(=O)[C@@]2(C)[C@H]([C@H](OC(=O)c3ccccc3)[C@]3(O)C[C@H](OC(=O)[C@H](O)[C@@H](NC(=O)c4ccccc4)c4ccccc4)C(C)=C1C3(C)C)[C@]1(OC(C)=O)CO[C@@H]1C[C@@H]2O` [PACLITAXEL], the 50% inhibitory concentration (IC50) was found to be 457 nM with MDA-MB-231 [1], 8 nM in series [5], 5100 nM in series [6] and 7 nM in series [7].

In the case of `c1cnc2c(c1)nc(-c1cncnc1)n2C1CCCC1`, in the series on MDA-MB-231 [1], the 50% inhibitory concentration (IC50) was > 10000 nM.

The compound `Fc1cc(F)cc(-c2nc3ncccc3n2C2CCCCC2)c1` returned an IC50 with MDA-MB-231 [1] of 3800 nM.

As for `COc1ccc(-c2nc3cccnc3n2C2CCCC2)cn1`, the concentration for half-maximal inhibition (IC50) in the series on MDA-MB-231 [1] is 219 nM.

In the series on MDA-MB-231 [1], `Fc1ccc(-c2nc3cccnc3n2C2CCCC2)cc1` registered a concentration for half-maximal inhibition (IC50) of 500 nM.

The compound `O=C(NC1CC1)c1ccc(-c2nc3cccnc3n2C2CCCC2)cc1` returned an IC50 with MDA-MB-231 [1] of 115 nM. Further, the remaining at 0.75 h, 1 µM in series [2] and in series [3] was 42% throughout. Also, in the series on MDA-MB-231 [4], the inhibition at 10 µM was 42%.

In the series with MDA-MB-231 [1], `c1cnc2c(c1)nc(-c1ccc(-c3nnco3)cc1)n2C1CCCC1` came in with an IC50 of 87 nM.

In the series on MDA-MB-231 [1], `CN(C)c1ncc(-c2nc3cccnc3n2C2CCCC2)cn1` displayed an IC50 of 45 nM.

Turning to `c1ccc(Oc2ccc(-c3nc4cccnc4n3C3CCCC3)cc2)cc1`, in the series on MDA-MB-231 [1], the half-maximal inhibitory concentration (IC50) was > 10000 nM.

The compound `c1cnc2c(c1)nc(-c1ccc3c(c1)OCC3)n2C1CCCC1` yielded an IC50 with MDA-MB-231 [1] of 513 nM.

As to `COc1ccc(-c2nc3cccnc3n2C2CCCCC2)cc1`, in the series on MDA-MB-231 [1], the 50% inhibitory concentration (IC50) was determined as 112 nM.

`Fc1cccc(-c2nc3cccnc3n2C2CCCCC2)c1` came in with an IC50 with MDA-MB-231 [1] of 342 nM.

As to `FC(F)(F)c1cc(-c2nc3cccnc3n2C2CCCC2)cc(C(F)(F)F)c1`, the IC50 with MDA-MB-231 [1] was found to be 112 nM.

With `c1cnc2c(c1)nc(-c1ccc(-c3nnn[nH]3)cc1)n2C1CCCC1`, in the series with MDA-MB-231 [1], half-maximal inhibition (IC50) was put at 765 nM.

In turn, `Cc1cc(-c2nc3cccnc3n2C2CCCC2)cnc1F` gave a half-maximal inhibitory concentration (IC50) with MDA-MB-231 [1] of 70 nM.

In the case of `Fc1cc(F)cc(-c2nc3cccnc3n2C2CCCC2)c1`, in the series with MDA-MB-231 [1], the concentration for half-maximal inhibition (IC50) was found to be 138 nM.

As for `Cc1cccc(-c2nc3cccnc3n2C2CCCC2)c1Cl`, in the series on MDA-MB-231 [1], inhibition was half-maximal at 646 nM (IC50).

Regarding `FC(F)(F)Oc1cccc(-c2nc3cccnc3n2C2CCCC2)c1`, it took 262 nM to reach half-maximal inhibition with MDA-MB-231 [1] (IC50).

As for `Cn1c(-c2cc(F)cc(F)c2)nc2ncccc21`, the midpoint of inhibition with MDA-MB-231 [1], the IC50, lay at 2700 nM.

As for `Cn1c(-c2ccccc2)nc2cccnc21`, half-maximal inhibition in the series with MDA-MB-231 [1] (IC50) was put at 4100 nM.

`Cc1nnc(-c2ccc(-c3nc4cccnc4n3C3CCCC3)cc2)o1`: the IC50 was found to be 21 nM in the series on MDA-MB-231 [1]; 25 nM in series [5]; 80 nM in series [6]; 70 nM in series [7]; 28 nM in series [8]. Further, the remaining at 0.75 h, 1 µM in series [2] and in series [3] was 75% throughout. Further, the inhibition at 10 µM in the series with MDA-MB-231 [4] was determined as 77.3%.

As to `O=C(O)c1ccc(-c2nc3cccnc3n2C2CCCC2)cc1`, the midpoint of inhibition in the series on MDA-MB-231 [1], the IC50, lay at 600 nM. The remaining at 0.75 h, 1 µM in series [2] and in series [3] was 80% each time.

As for `O=C(NCc1ccccc1)c1ccc(-c2nc3cccnc3n2C2CCCC2)cc1`, the half-inhibitory concentration (IC50) in the series on MDA-MB-231 [1] was 620 nM.

Take `Cc1ccsc1-c1nc2cccnc2n1C1CCCC1`: in the series on MDA-MB-231 [1], it took 138 nM to reach half-maximal inhibition (IC50).

On to `CCS(=O)(=O)c1cccc(-c2nc3cccnc3n2C2CCCCC2)c1`, for which the concentration for half-maximal inhibition (IC50) in the series on MDA-MB-231 [1] stood at 164 nM.

In the series with MDA-MB-231 [1], `Cc1ccc(-c2nc3cccnc3n2C2CCCCC2)cc1` registered an IC50 of 7000 nM.

In the series with MDA-MB-231 [1], `c1ccc(Cn2nccc2-c2nc3cccnc3n2C2CCCC2)cc1` returned an IC50 of 348 nM.

As to `NC(=O)c1ccc(-c2nc3cccnc3n2C2CCCC2)cc1`, in the series on MDA-MB-231 [1], 8000 nM corresponded to half-maximal inhibition (IC50).

`N#Cc1ccc(-c2nc3cccnc3n2C2CCCC2)cc1F`: inhibition in the series on MDA-MB-231 [1] was half-maximal at 2000 nM (IC50).

`CCNC(=O)c1ccc(-c2nc3cccnc3n2C2CCCC2)cc1` showed a half-maximal inhibitory concentration (IC50) in the series with MDA-MB-231 [1] of 320 nM.

As to `CN(C)c1cccc(-c2nc3cccnc3n2C2CCCC2)c1`, in the series on MDA-MB-231 [1], the IC50 stood at 455 nM.

In the series with MDA-MB-231 [1], `Cn1ccc2cc(-c3nc4cccnc4n3C3CCCC3)ccc21` showed an IC50 of 90 nM.

On to `CN(C)C(=O)c1ccc(-c2nc3cccnc3n2C2CCCC2)cc1`, for which, in the series on MDA-MB-231 [1], the half-maximal inhibitory concentration (IC50) stood at 520 nM.

The compound `c1ccc(-c2nc3cccnc3n2C2CCCC2)cc1` returned an IC50 with MDA-MB-231 [1] of 3000 nM.
